Experimental data as given in US10653670B2, “Use of indole compounds for fat reduction and skin and soft tissue tightening” (Alevere Medical Corporation, priority 2013, dated 2020).
“Also recorded” adds a separate entry of the source.

Experiments:
adipocytes [1] = assay: LIVE/DEAD calcein/ethidium bromide assay, adipocyte kill rate; type: cell-based, human; conditions: for Adipocyte, averaged ethidium numbers: kill rate (ethidium), all tissue types on the same plate; for adipocyte kill rate / aggressiveness: Example 2, FIGS. 5-8 and table
Experimental: (§1) The time and concentration dependent effects of drug substance on both cell viability and toxicity were evaluated using a two-color fluorescence assay that measures plasma membrane integrity and intracellular enzyme activity. Live cells are determined by the strong fluorescence of calcein AM upon enzymatic conversion. […] The ratio of ethidium to calcein fluorescence is an excellent measure of the relative amount of live and dead cells.
(§2) Initial screening was performed using a variety of cell viability and cytotoxicity assays, including Presto Blue® (Invitrogen, Grand Island, N.Y.), Alamar Blue® (Invitrogen, Grand Island, N.Y.), Cyto-Tox One® (Promega, Madison, Wis.), and Cell Titer Glo® (Promega, Madison, Wis.). […] An MTT terazolium assay was performed, as well as LDH and ATP based assays. […] The LIVE/DEAD® for mammalian cells assay was used. LIVE/DEAD® for mammalian cells assay is a calcein (live read)/ethidium bromide (dead) multiplex assay.
(§3) A sample of DMSO/PBS was a negative control. A sample of Aqualyx® was a positive control. In the table, 24M is phosphatidylcholine 25 mg/ml plus deoxycholate 12 mg/and 25N is C 50/DC24; these were positive controls. The numbers in the table refer to averaged ethidium numbers. The percentages represent the relative kill rate for each cell type when rated against the adipocyte kill rate for that compound. All tissue types were tested on the same plate against adipocytes in order to standardize results.
(§4) Over seventy compounds of the embodiments were tested for adipocytolysis, then for tissue preference. A consistent assay with multiplex information was a calcein/ethidium bromide assay that assesses cell viability and cell death simultaneously. Cell viability was checked using the Countess device. All plates were inoculated with 100 microliters of the appropriate cell types. A 6 well repeat was used to verify results. Cell types used included cultured human adult derived adipocytes, dermal fibroblasts, skeletal muscle cells, and endothelial cells (Cell Applications, Inc., San Diego, Calif.). Human peripheral nerve cells (Innoprot, Spain) were also used.
(§5) Compounds were formulated using a DMSO/PBS excipient. A 10 mg/ml concentration was used. One hundred microliters of test compound was inserted into 6 wells of 5 cell types, placed in adjacent rows. The plates were incubated for 4 hours. Indicator was added to each well, and plates were read at 45 minutes using a fluorescence spectrophotometer (Molecular Devices, Sunnyvale, Calif.).

dermal fibroblasts = type: cell-based; conditions: for Dermis, averaged ethidium numbers: kill rate (ethidium), same plate as adipocytes; for Dermis, relative kill rate rated against the adipocyte kill rate: percentage in brackets; for toxicity to dermis / dermal fibroblasts: Example 2, FIGS. 6-8
Experimental: as §1, §2, §3, §4, §5

nerve cells = type: cell-based; conditions: for Nerve, averaged ethidium numbers: kill rate (ethidium), same plate as adipocytes; for Nerve, relative kill rate rated against the adipocyte kill rate: percentage in brackets; for toxicity to nerve cells: Example 2, FIGS. 6-8
Experimental: as §1, §2, §3, §4, §5

skeletal muscle cells = assay: LIVE/DEAD calcein/ethidium bromide assay, muscle cell kill rate; type: cell-based, human; conditions: for Muscle, averaged ethidium numbers: kill rate (ethidium), same plate as adipocytes; for Muscle, relative kill rate rated against the adipocyte kill rate: percentage in brackets
Experimental: as §1, §2, §3, §4, §5

endothelial cells = assay: LIVE/DEAD calcein/ethidium bromide assay, endothelial cell kill rate; type: cell-based, human; conditions: for Endothelial, averaged ethidium numbers: kill rate (ethidium), same plate as adipocytes; for Endothelial, relative kill rate rated against the adipocyte kill rate: percentage in brackets
Experimental: as §1, §2, §3, §4, §5

[2] = system: adipocytes over nerve cells, dermal cells, muscle cells, and endothelial cells; assay: LIVE/DEAD assay, tissue preference (adipocytes versus other cell types); type: cell-based, human; conditions: for tissue specificity / tissue preference: Example 2, FIGS. 5-8 and table, 2 and 5 hours in FIGS. 6-8; for tissue preference for adipocytes: Example 2
adipocytes [3] = assay: Histology of injected immediate ex-vivo abdominoplasty tissue; type: cell-based, human; conditions: at 1 hour
Experimental: As the indole group has not been previously used for intralesional fat reduction, a method of obtaining histologic specimens had to be modified.
The tissue model described herein, therefore, was immediate ex-vivo abdominoplasty tissue that had been permitted for use by the surgical patient. Segments of abdominal skin and subcutaneous fat were injected with identified test compounds, plus a negative saline control and three positive controls: 1% deoxycholate, the commercial preparation of Aqualyx®, and the Network Lipolysis PC/DC formula.
Because there was no host; inflammatory changes would not be expected. This study was only performed to assess the immediacy of adipocyte changes, and to determine the method of action of each compound.

O=Cc1c[nH]c2ccccc12 [Compound 1, 1H-indole-3-carbaldehyde]
Adipocyte, averaged ethidium numbers (adipocytes [1]): 53
Dermis, averaged ethidium numbers (dermal fibroblasts): 56
Nerve, averaged ethidium numbers (nerve cells): 60
Muscle, averaged ethidium numbers (skeletal muscle cells): 82
Endothelial, averaged ethidium numbers (endothelial cells): 98
tissue specificity / tissue preference [2]: no preference

O=Cc1cc2ccccc2[nH]1 [Compound 2, 1H-indole-2-carbaldehyde]
adipocyte kill rate / aggressiveness (adipocytes [1]): aggressive; also recorded: most aggressive
Adipocyte, averaged ethidium numbers (adipocytes [1]): 360
Dermis, averaged ethidium numbers (dermal fibroblasts): 101
Dermis, relative kill rate rated against the adipocyte kill rate (dermal fibroblasts): 28%
Nerve, averaged ethidium numbers (nerve cells): 124
Nerve, relative kill rate rated against the adipocyte kill rate (nerve cells): 39%
Muscle, averaged ethidium numbers (skeletal muscle cells): 93
Muscle, relative kill rate rated against the adipocyte kill rate (skeletal muscle cells): 26%
Endothelial, averaged ethidium numbers (endothelial cells): 116
Endothelial, relative kill rate rated against the adipocyte kill rate (endothelial cells): 32%
tissue specificity / tissue preference [2]: most strongly tissue preferential; also recorded: high specificity
histology finding / mechanism of action (adipocytes [3]): more cytolysis than apoptosis

O=Cc1ccc2[nH]ccc2c1 [Compound 3, 1H-indole-5-carbaldehyde]
Adipocyte, averaged ethidium numbers (adipocytes [1]): 42.5
Dermis, averaged ethidium numbers (dermal fibroblasts): 26.5
Dermis, relative kill rate rated against the adipocyte kill rate (dermal fibroblasts): 62%
Nerve, averaged ethidium numbers (nerve cells): 26
Nerve, relative kill rate rated against the adipocyte kill rate (nerve cells): 61%
Muscle, averaged ethidium numbers (skeletal muscle cells): 25
Muscle, relative kill rate rated against the adipocyte kill rate (skeletal muscle cells): 59%
Endothelial, averaged ethidium numbers (endothelial cells): 25
Endothelial, relative kill rate rated against the adipocyte kill rate (endothelial cells): 59%
tissue specificity / tissue preference [2]: moderate preference

O=Cc1cccc2cc[nH]c12 [Compound 4, 1H-indole-7-carbaldehyde]
adipocyte kill rate / aggressiveness (adipocytes [1]): less aggressive
Adipocyte, averaged ethidium numbers (adipocytes [1]): 127
Dermis, averaged ethidium numbers (dermal fibroblasts): 79
Dermis, relative kill rate rated against the adipocyte kill rate (dermal fibroblasts): 62%
Nerve, averaged ethidium numbers (nerve cells): 66
Nerve, relative kill rate rated against the adipocyte kill rate (nerve cells): 52%
Muscle, averaged ethidium numbers (skeletal muscle cells): 99
Muscle, relative kill rate rated against the adipocyte kill rate (skeletal muscle cells): 78%
Endothelial, averaged ethidium numbers (endothelial cells): 86
Endothelial, relative kill rate rated against the adipocyte kill rate (endothelial cells): 63%
tissue preference for adipocytes [2]: about 50%
tissue specificity / tissue preference [2]: shows specificity for adipocyte killing

O=Cc1cccc2[nH]ccc12 [Compound 5, 1H-indole-4-carbaldehyde]
Adipocyte, averaged ethidium numbers (adipocytes [1]): 36
toxicity to dermis / dermal fibroblasts (dermal fibroblasts): late dermal spike
Dermis, averaged ethidium numbers (dermal fibroblasts): 17
Dermis, relative kill rate rated against the adipocyte kill rate (dermal fibroblasts): 47%
toxicity to nerve cells (nerve cells): more nerve preservation
Nerve, averaged ethidium numbers (nerve cells): 17
Nerve, relative kill rate rated against the adipocyte kill rate (nerve cells): 47%
Muscle, averaged ethidium numbers (skeletal muscle cells): 27
Muscle, relative kill rate rated against the adipocyte kill rate (skeletal muscle cells): 75%
Endothelial, averaged ethidium numbers (endothelial cells): 16
Endothelial, relative kill rate rated against the adipocyte kill rate (endothelial cells): 44%
tissue preference for adipocytes [2]: about 50%

O=Cc1c[nH]c2c3c(ccc12)CCC3 [Compound 7, 1,6,7,8-tetrahydrocyclopenta[g]indole-3-carbaldehyde]
Adipocyte, averaged ethidium numbers (adipocytes [1]): 196
Dermis, averaged ethidium numbers (dermal fibroblasts): 103
Dermis, relative kill rate rated against the adipocyte kill rate (dermal fibroblasts): 53%
Nerve, averaged ethidium numbers (nerve cells): 56
Nerve, relative kill rate rated against the adipocyte kill rate (nerve cells): 30%
Muscle, averaged ethidium numbers (skeletal muscle cells): 119
Muscle, relative kill rate rated against the adipocyte kill rate (skeletal muscle cells): 61%
Endothelial, averaged ethidium numbers (endothelial cells): 69
Endothelial, relative kill rate rated against the adipocyte kill rate (endothelial cells): 35%
tissue specificity / tissue preference [2]: not tissue preference

O=C(O)CCCc1c[nH]c2ccccc12 [Compound 10, 4-(1H-indol-3-yl) butanoic acid]
adipocyte kill rate / aggressiveness (adipocytes [1]): most aggressive
Adipocyte, averaged ethidium numbers (adipocytes [1]): 45
Dermis, averaged ethidium numbers (dermal fibroblasts): 10
Dermis, relative kill rate rated against the adipocyte kill rate (dermal fibroblasts): 22%
Nerve, averaged ethidium numbers (nerve cells): 12
Nerve, relative kill rate rated against the adipocyte kill rate (nerve cells): 27%
Muscle, averaged ethidium numbers (skeletal muscle cells): 13
Muscle, relative kill rate rated against the adipocyte kill rate (skeletal muscle cells): 29%
Endothelial, averaged ethidium numbers (endothelial cells): 16.5
Endothelial, relative kill rate rated against the adipocyte kill rate (endothelial cells): 37%

O=C(O)c1cccc2[nH]ccc12 [Compound 27, 1H-indole-4-carboxylic acid]
tissue specificity / tissue preference [2]: high specificity

O=C(O)c1ccc2[nH]ccc2c1 [Compound 28, 1H-indole-5-carboxylic acid]
adipocyte kill rate / aggressiveness (adipocytes [1]): high kill rate
tissue specificity / tissue preference [2]: high specificity

O=C(O)c1c[nH]c2ccccc12 [Compound 30, 1H-indole-3-carboxylic acid]
tissue preference for adipocytes [2]: about 50%

O=C(O)c1cc2cc(Br)ccc2[nH]1 [Compound 40, 5-bromo-1H-indole-2-carboxylic acid]
adipocyte kill rate / aggressiveness (adipocytes [1]): moderate
Adipocyte, averaged ethidium numbers (adipocytes [1]): 123
Dermis, averaged ethidium numbers (dermal fibroblasts): 33
Dermis, relative kill rate rated against the adipocyte kill rate (dermal fibroblasts): 27%
Nerve, averaged ethidium numbers (nerve cells): 61
Nerve, relative kill rate rated against the adipocyte kill rate (nerve cells): 50%
Muscle, averaged ethidium numbers (skeletal muscle cells): 36
Muscle, relative kill rate rated against the adipocyte kill rate (skeletal muscle cells): 29%
Endothelial, averaged ethidium numbers (endothelial cells): 40
Endothelial, relative kill rate rated against the adipocyte kill rate (endothelial cells): 33%
tissue specificity / tissue preference [2]: most strongly tissue preferential; also recorded: tissue specificity at two time points; also recorded: high specificity

O=Cc1c[nH]c2cccc(OCc3ccccc3)c12 [Compound 43, 4-(benzyloxy)-1H-indole-3-carbaldehyde]
adipocyte kill rate / aggressiveness (adipocytes [1]): aggressive; also recorded: adipolytic
Adipocyte, averaged ethidium numbers (adipocytes [1]): 340
toxicity to dermis / dermal fibroblasts (dermal fibroblasts): low kill rate
Dermis, averaged ethidium numbers (dermal fibroblasts): 74
Dermis, relative kill rate rated against the adipocyte kill rate (dermal fibroblasts): 22%
toxicity to nerve cells (nerve cells): low kill rate
Nerve, averaged ethidium numbers (nerve cells): 58
Nerve, relative kill rate rated against the adipocyte kill rate (nerve cells): 17%
Muscle, averaged ethidium numbers (skeletal muscle cells): 73
Muscle, relative kill rate rated against the adipocyte kill rate (skeletal muscle cells): 21%
Endothelial, averaged ethidium numbers (endothelial cells): 92.5
Endothelial, relative kill rate rated against the adipocyte kill rate (endothelial cells): 27%
tissue specificity / tissue preference [2]: most strongly tissue preferential

O=Cc1c[nH]c2cc(OCc3ccccc3)ccc12 [Compound 44, 6-(benzyloxy)-1H-indole-3-carbaldehyde]
Adipocyte, averaged ethidium numbers (adipocytes [1]): 218
Dermis, averaged ethidium numbers (dermal fibroblasts): 134
Dermis, relative kill rate rated against the adipocyte kill rate (dermal fibroblasts): 61%
Nerve, averaged ethidium numbers (nerve cells): 103
Nerve, relative kill rate rated against the adipocyte kill rate (nerve cells): 47%
Muscle, averaged ethidium numbers (skeletal muscle cells): 172
Muscle, relative kill rate rated against the adipocyte kill rate (skeletal muscle cells): 79%
Endothelial, averaged ethidium numbers (endothelial cells): 129
Endothelial, relative kill rate rated against the adipocyte kill rate (endothelial cells): 59%
tissue preference for adipocytes [2]: about 50%
tissue specificity / tissue preference [2]: not as specific as the other compounds tested in this group

O=C(O)[C@H]1Cc2c([nH]c3ccccc23)[C@@H](c2ccc(O)cc2O)N1 [Compound 78, (1R,3R)-1-(2,4-dihydroxyphenyl)-2,3,4,9-tetrahydro-1H-pyrido [3,4-b]indole-3-carboxylic acid]
Adipocyte, averaged ethidium numbers (adipocytes [1]): 29.5
Dermis, averaged ethidium numbers (dermal fibroblasts): 8.3
Dermis, relative kill rate rated against the adipocyte kill rate (dermal fibroblasts): 28%
Muscle, averaged ethidium numbers (skeletal muscle cells): 8.7
Muscle, relative kill rate rated against the adipocyte kill rate (skeletal muscle cells): 29%
Endothelial, averaged ethidium numbers (endothelial cells): 9.8
Endothelial, relative kill rate rated against the adipocyte kill rate (endothelial cells): 33%
tissue specificity / tissue preference [2]: high specificity
